For one assay, the system named is HCV genotype 1a replicon cell line. The assay is described as follows: HCV Genotype 1a Replicon Assay. Type of assay: cell-based, hepatitis C virus. The settings on record: Hepatitis C virus, Huh7.5 cell background, NS3-specific protease activity in lysates, 48 or 72 hours, read-out: Genotype 1a (pEC50 class) (converted). As for the experimental part:
Assay 2: HCV Genotype 1a Replicon Assay
The HCV genotype 1a replicon cell line was obtained from Apath LLC (APC89; Huh7.5 cell background). This subgenomic replicon contains the N-terminus of the HCV core protein fused to the neomycin-resistance selectable marker. The EMCV IRES lies downstream and drives expression of the non-structural proteins NS3-NS5B. Compound potencies were determined using the NS3-specific protease activity in lysates as a measurement of compound inhibition of replicon levels.
Cells were grown at 37° C. in a 5% CO2 humidified incubator in DMEM (Invitrogen) with 10% FBS (HyClone), 1×NEAA (Invitrogen), 1× Pen-Strep (Invitrogen), and 850 μg/mL G418 (Invitrogen). On day 1 of the assay, cells were plated at 15,000 cells/well in black 96-well tissue culture plates (Costar) in 200 μL media lacking G418. Four hours later, once the cells had adhered, the media was removed and replaced with media (no G418) containing dose-responses of test compounds. Compounds were initially diluted in DMSO and then diluted another 200× in media to bring the final DMSO concentration down to 0.5%. The cells were incubated with test compounds for 48 or 72 hours. At the end of the incubation period, media and compound were removed from the plates.
To determine the NS3-specific protease activity in lysates, the cells were lysed at room temperature in 50 μL/well of 50 mM Hepes pH 7.5, 150 mM NaCl, 15% Glycerol, 0.15% Triton X-100, 10 mM DTT for 20 minutes with shaking. 50 μL of an NS3/4a protease-specific FRET substrate (Anaspec RET SI Cat#22991) was then added to the wells at a final concentration of 15 μM. The plates were incubated at 37° C. for 20 minutes, which corresponds to a timepoint at which the protease activity is still in the linear phase. Protease activity was determined by measuring fluorescence (Excitation: 340 nm; Emission: 509 nm).
To analyze the data, the fluorescence was plotted vs. the compound concentration, and EC50 values were determined from a 4-parameter robust fit model using GraphPad Prism software.
For orientation: Replicon systems follow genome replication, usually without infectious particles.
In the case of `COC(=O)N[C@H](C(=O)N1C[C@@H](C)C[C@H]1c1nc(-c2ccc(-c3cc(Cl)c(NC(=O)N4CCN(C5CCN(C(=O)C6CC6(Cl)Cl)CC5)CC4)cc3OC(F)(F)F)cc2)c[nH]1)C(C)C` (stereo partly drawn) [Example 2, [(S)-1-((S)-2-{4-[5′-Chloro-4′-({4-[1-(2,2-dichloro-cyclopropanecarbonyl)-piperidin-4-yl]-piperazine-1-carbonyl}-amino)-2′-trifluoromethoxy-biphenyl-4-yl]-1H-imidazol-2-yl}-4-methyl-pyrrolidine-1-carbonyl)-2-methyl-propyl]-carbamic acid methyl ester], the EC50 was 1 to 10 nM.

Still in this assay, the particulars now being: Huh7.5 cell background, NS3-specific protease activity in lysates, 48 or 72 hours.
In the case of `COC(=O)N[C@H](C(=O)N1CCC[C@H]1c1nc(-c2ccc(-c3cc(Cl)c(NC(=O)N4CCN(C5CCN(C(=O)OC(C)(C)C)CC5)CC4)cc3OC(F)(F)F)cc2)c[nH]1)C(C)C` [Example 1-36], the “Genotype 1a (pEC50 class)” value was “C (C represents pEC50 between and 9 and about 10, (EC50 between 1 nM and 0.1 nM))”. On the same count and under the same terms, in the case of `COC(=O)NC(C(=O)N1CCCC1c1nc(-c2ccc(-c3ccc(NC(=O)N4CCN(C5CCN(C(=O)C6CC6(C)C)CC5)C(C)C4)cc3OC(F)(F)F)cc2)c[nH]1)C(C)C` (stereo not drawn) [Example 1-37] it was “B (B represents pEC50 between 8 and 9 (EC50 between 1 and 10 nM))”; in that of `COC(=O)NC(C(=O)N1CCCC1c1nc(-c2ccc(-c3ccc(NC(=O)N4CCN(C5CCN(C(=O)OC(C)(C)C)CC5)C(C)C4)cc3OC(F)(F)F)cc2)c[nH]1)C(C)C` (stereo not drawn) [Example 1-38], “B (B represents pEC50 between 8 and 9 (EC50 between 1 and 10 nM))”; in that of `CNC(=O)N1CCC(N2CCN(C(=O)Nc3ccc(-c4ccc(-c5c[nH]c(C6CCCN6C(=O)C(NC(=O)OC)C(C)C)n5)cc4)c(OC(F)(F)F)c3)CC2C)CC1` (stereo not drawn) [Example 1-39], “B (B represents pEC50 between 8 and 9 (EC50 between 1 and 10 nM))”. On the same count and under the same terms, in the case of `COC(=O)NC(C(=O)N1CCCC1c1nc(-c2ccc(-c3ccc(NC(=O)N4CCN(C5CCN(C(=O)C6CC6)CC5)C(C)C4)cc3OC(F)(F)F)cc2)c[nH]1)C(C)C` (stereo not drawn) [Example 1-40] it was “B (B represents pEC50 between 8 and 9 (EC50 between 1 and 10 nM))”. Still for that read-out and setting: in the case of `COC(=O)N[C@H](C(=O)N1CCC[C@H]1c1nc(-c2ccc(-c3ccc(NC(=O)N4CCN(C5CCN(C(=O)C6CC6)CC5)C[C@@H]4C)cc3OC(F)(F)F)cc2)c[nH]1)C(C)C` [Example 1-41] it was “B (B represents pEC50 between 8 and 9 (EC50 between 1 and 10 nM))”; in that of `COC(=O)NC(C(=O)N1CCCC1c1nc(-c2ccc(-c3ccc(NC(=O)N4CCN(C5CCN(C(=O)C(C)(C)C)CC5)C(CO)C4)cc3OC(F)(F)F)cc2)c[nH]1)C(C)C` (stereo not drawn) [Example 1-42], “B (B represents pEC50 between 8 and 9 (EC50 between 1 and 10 nM))”; in that of `CNC(=O)N1CCC(N2CCN(C(=O)Nc3ccc(-c4ccc(-c5c[nH]c(C6CCCN6C(=O)C(NC(=O)OC)C(C)C)n5)cc4)c(OC(F)(F)F)c3)CC2CO)CC1` (stereo not drawn) [Example 1-43], “A (A represents a pEC50 value between 6 and 8 (EC50 between 1 μM and 10 nM))”. In the case of `COC(=O)NC(C(=O)N1CCCC1c1nc(-c2ccc(-c3ccc(NC(=O)N4CCN(C5CCN(C(=O)C6CC6)CC5)C(CO)C4)cc3OC(F)(F)F)cc2)c[nH]1)C(C)C` (stereo not drawn) [Example 1-44], the “Genotype 1a (pEC50 class)” value was “A (A represents a pEC50 value between 6 and 8 (EC50 between 1 μM and 10 nM))”. Turning to `COC(=O)NC(C(=O)N1CCCC1c1nc(-c2ccc(-c3ccc(NC(=O)N4CCN(C5CCN(C(=O)C6CC6(C)C)CC5)C(CO)C4)cc3OC(F)(F)F)cc2)c[nH]1)C(C)C` (stereo not drawn) [Example 1-45], the “Genotype 1a (pEC50 class)” value was “B (B represents pEC50 between 8 and 9 (EC50 between 1 and 10 nM))”. For the molecule `COC(=O)N[C@H](C(=O)N1C[C@@H](C)C[C@H]1c1nc(-c2ccc(-c3ccc(NC(=O)N4CCN(C5CCN(C(=O)C6CC6)CC5)CC4)cc3OC(F)(F)F)cc2)c[nH]1)C(C)C` [Example 2-1], the “Genotype 1a (pEC50 class)” value is listed as “D (D represents pEC50>10 (EC50<0.1 nM))”. Still for that read-out and setting: in the case of `COC(=O)N[C@H](C(=O)N1C[C@@H](C)C[C@H]1c1nc(-c2ccc(-c3cc(F)c(NC(=O)N4CCN(C5CCN(C(=O)OC(C)(C)C)CC5)CC4)cc3OC(F)(F)F)cc2)c[nH]1)C(C)C` [Example 2-2] it was “D (D represents pEC50>10 (EC50<0.1 nM))”. Same read-out and setting: in the case of `COC(=O)N[C@H](C(=O)N1C[C@@H](C)C[C@H]1c1nc(-c2ccc(-c3cc(F)c(NC(=O)N4CCN(C5CCN(C(=O)C6CC6)CC5)CC4)cc3OC(F)(F)F)cc2)c[nH]1)C(C)C` [Example 2-3] it was “D (D represents pEC50>10 (EC50<0.1 nM))”; in that of `CNC(=O)N1CCC(N2CCN(C(=O)Nc3cc(OC(F)(F)F)c(-c4ccc(-c5c[nH]c([C@@H]6C[C@H](C)CN6C(=O)[C@@H](NC(=O)OC)C(C)C)n5)cc4)cc3F)CC2)CC1` [Example 2-4], “D (D represents pEC50>10 (EC50<0.1 nM))”; in that of `CNC(=O)N1CCC(N2CCN(C(=O)Nc3cc(OC(F)(F)F)c(-c4ccc(-c5c[nH]c([C@@H]6C[C@H](C)CN6C(=O)[C@@H](NC(=O)OC)C(C)C)n5)cc4)cc3Cl)CC2)CC1` [Example 2-7], “C (C represents pEC50 between and 9 and about 10, (EC50 between 1 nM and 0.1 nM))”. Turning to `COC(=O)N[C@H](C(=O)N1C[C@@H](C)C[C@H]1c1nc(-c2ccc(-c3cc(Cl)c(NC(=O)N4CCN(C5CCN(C(=O)OC(C)(C)C)CC5)CC4)cc3OC(F)(F)F)cc2)c[nH]1)C(C)C` [Example 2-8], the “Genotype 1a (pEC50 class)” value is “C (C represents pEC50 between and 9 and about 10, (EC50 between 1 nM and 0.1 nM))”. Turning to `COC(=O)N[C@H](C(=O)N1C[C@@H](C)C[C@H]1c1nc(-c2ccc(-c3ccc(NC(=O)N4CCN(C5CCN(C(=O)C6CC6(F)F)CC5)CC4)cc3OC(F)(F)F)cc2)c[nH]1)C(C)C` (stereo partly drawn) [Example 2-10], the “Genotype 1a (pEC50 class)” value is “C (C represents pEC50 between and 9 and about 10, (EC50 between 1 nM and 0.1 nM))”. For the molecule `COC(=O)N[C@H](C(=O)N1C[C@@H](C)C[C@H]1c1nc(-c2ccc(-c3ccc(NC(=O)N4CCN(C5CCN(C(=O)[C@H]6CC6(C)C)CC5)CC4)cc3OC(F)(F)F)cc2)c[nH]1)C(C)C` [Example 2-11], the “Genotype 1a (pEC50 class)” value is given as “D (D represents pEC50>10 (EC50<0.1 nM))”. Consider `CNC(=O)N1CCC(N2CCN(C(=O)Nc3ccc(-c4ccc(-c5c[nH]c([C@@H]6C[C@H](C)CN6C(=O)[C@@H](NC(=O)OC)C(C)C)n5)cc4)c(OC(F)(F)F)c3)CC2)CC1` [Example 2-12], for which the “Genotype 1a (pEC50 class)” value was “C (C represents pEC50 between and 9 and about 10, (EC50 between 1 nM and 0.1 nM))”. Consider `COC(=O)N[C@H](C(=O)N1C[C@@H](C)C[C@H]1c1nc(-c2ccc(-c3cc(F)c(NC(=O)N4CCN(C5CCN(C(=O)C6CC6(F)Cl)CC5)CC4)cc3OC(F)(F)F)cc2)c[nH]1)C(C)C` (stereo partly drawn) [Example 2-14], for which the “Genotype 1a (pEC50 class)” value is “C (C represents pEC50 between and 9 and about 10, (EC50 between 1 nM and 0.1 nM))”. Take `COC(=O)N[C@H](C(=O)N1C[C@@H](C)C[C@H]1c1nc(-c2ccc(-c3cc(F)c(NC(=O)N4CCN(C5CCN(C(=O)C6CC6(Cl)Cl)CC5)CC4)cc3OC(F)(F)F)cc2)c[nH]1)C(C)C` (stereo partly drawn) [Example 2-15]: the “Genotype 1a (pEC50 class)” value was “C (C represents pEC50 between and 9 and about 10, (EC50 between 1 nM and 0.1 nM))”. On the same count and under the same terms, in the case of `COC(=O)N[C@H](C(=O)N1C[C@@H](C)C[C@H]1c1nc(-c2ccc(-c3ccc(NC(=O)N4CCN(C5CCN(C(=O)OC(C)(C)C)CC5)CC4)cc3OC(F)(F)F)cc2)c(Cl)[nH]1)C(C)C` [Example 2-18] it was “C (C represents pEC50 between and 9 and about 10, (EC50 between 1 nM and 0.1 nM))”; in that of `COC(=O)N[C@H](C(=O)N1C[C@@H](C)C[C@H]1c1nc(-c2ccc(-c3cc(Cl)c(NC(=O)N4CCN(C5CCN(C(=O)C6CC(F)(F)C6)CC5)CC4)cc3OC(F)(F)F)cc2)c[nH]1)C(C)C` [Example 2-22], “B (B represents pEC50 between 8 and 9 (EC50 between 1 and 10 nM))”; in that of `[2H]C([2H])([2H])C1(C([2H])([2H])[2H])CC1C(=O)N1CCC(N2CCN(C(=O)Nc3cc(OC(F)(F)F)c(-c4ccc(-c5c[nH]c([C@@H]6C[C@H](C)CN6C(=O)[C@@H](NC(=O)OC)C(C)C)n5)cc4)cc3Cl)CC2)CC1` (stereo partly drawn) [Example 2-23], “C (C represents pEC50 between and 9 and about 10, (EC50 between 1 nM and 0.1 nM))”. Same read-out and setting: in the case of `COC(=O)N[C@H](C(=O)N1C[C@@H](C)C[C@H]1c1nc(-c2ccc(-c3cc(Cl)c(NC(=O)N4CCN(C5CCN(C(=O)C6CC67CC7)CC5)CC4)cc3OC(F)(F)F)cc2)c[nH]1)C(C)C` (stereo partly drawn) [Example 2-24] it was “B (B represents pEC50 between 8 and 9 (EC50 between 1 and 10 nM))”; in that of `COC(=O)N[C@H](C(=O)N1C[C@@H](C)C[C@H]1c1nc(-c2ccc(-c3cc(Cl)c(NC(=O)N4CCN(C5CCN(C(=O)C6CC(C)(C)C6)CC5)CC4)cc3OC(F)(F)F)cc2)c[nH]1)C(C)C` [Example 2-25], “B (B represents pEC50 between 8 and 9 (EC50 between 1 and 10 nM))”.

The values above are taken from patent US9206159B2, “Piperazine-piperidine compounds as hepatitis C virus inhibitors” (Theravance Biopharma R&D IP, LLC, priority 2012, dated 2015).
